This note sets out measurements from patent US9340590B2 (priority 2011, dated 2016).

Like-named read-outs stand apart in the source and are kept apart here. Positions of bridges follow the written chain, without caps; N, C: chain ends. Non-standard residues stand in square brackets, D forms with d. Residues, ends and D or L forms follow the SMILES beside them. Chg = N[C@H](C(=O)O)C1CCCCC1

Holding throughout (experiment): cell-based
The target of one test is hNav1.3 (Homo sapiens, UniProt Q9NY46). As to conditions: IonWorks Quattro, read-out: IWQ Use Nav1.3. (In general: Patch clamp records ionic current or voltage across a cell membrane.)
Chain of hNav1.3 (Q9NY46 whole entry, looked up): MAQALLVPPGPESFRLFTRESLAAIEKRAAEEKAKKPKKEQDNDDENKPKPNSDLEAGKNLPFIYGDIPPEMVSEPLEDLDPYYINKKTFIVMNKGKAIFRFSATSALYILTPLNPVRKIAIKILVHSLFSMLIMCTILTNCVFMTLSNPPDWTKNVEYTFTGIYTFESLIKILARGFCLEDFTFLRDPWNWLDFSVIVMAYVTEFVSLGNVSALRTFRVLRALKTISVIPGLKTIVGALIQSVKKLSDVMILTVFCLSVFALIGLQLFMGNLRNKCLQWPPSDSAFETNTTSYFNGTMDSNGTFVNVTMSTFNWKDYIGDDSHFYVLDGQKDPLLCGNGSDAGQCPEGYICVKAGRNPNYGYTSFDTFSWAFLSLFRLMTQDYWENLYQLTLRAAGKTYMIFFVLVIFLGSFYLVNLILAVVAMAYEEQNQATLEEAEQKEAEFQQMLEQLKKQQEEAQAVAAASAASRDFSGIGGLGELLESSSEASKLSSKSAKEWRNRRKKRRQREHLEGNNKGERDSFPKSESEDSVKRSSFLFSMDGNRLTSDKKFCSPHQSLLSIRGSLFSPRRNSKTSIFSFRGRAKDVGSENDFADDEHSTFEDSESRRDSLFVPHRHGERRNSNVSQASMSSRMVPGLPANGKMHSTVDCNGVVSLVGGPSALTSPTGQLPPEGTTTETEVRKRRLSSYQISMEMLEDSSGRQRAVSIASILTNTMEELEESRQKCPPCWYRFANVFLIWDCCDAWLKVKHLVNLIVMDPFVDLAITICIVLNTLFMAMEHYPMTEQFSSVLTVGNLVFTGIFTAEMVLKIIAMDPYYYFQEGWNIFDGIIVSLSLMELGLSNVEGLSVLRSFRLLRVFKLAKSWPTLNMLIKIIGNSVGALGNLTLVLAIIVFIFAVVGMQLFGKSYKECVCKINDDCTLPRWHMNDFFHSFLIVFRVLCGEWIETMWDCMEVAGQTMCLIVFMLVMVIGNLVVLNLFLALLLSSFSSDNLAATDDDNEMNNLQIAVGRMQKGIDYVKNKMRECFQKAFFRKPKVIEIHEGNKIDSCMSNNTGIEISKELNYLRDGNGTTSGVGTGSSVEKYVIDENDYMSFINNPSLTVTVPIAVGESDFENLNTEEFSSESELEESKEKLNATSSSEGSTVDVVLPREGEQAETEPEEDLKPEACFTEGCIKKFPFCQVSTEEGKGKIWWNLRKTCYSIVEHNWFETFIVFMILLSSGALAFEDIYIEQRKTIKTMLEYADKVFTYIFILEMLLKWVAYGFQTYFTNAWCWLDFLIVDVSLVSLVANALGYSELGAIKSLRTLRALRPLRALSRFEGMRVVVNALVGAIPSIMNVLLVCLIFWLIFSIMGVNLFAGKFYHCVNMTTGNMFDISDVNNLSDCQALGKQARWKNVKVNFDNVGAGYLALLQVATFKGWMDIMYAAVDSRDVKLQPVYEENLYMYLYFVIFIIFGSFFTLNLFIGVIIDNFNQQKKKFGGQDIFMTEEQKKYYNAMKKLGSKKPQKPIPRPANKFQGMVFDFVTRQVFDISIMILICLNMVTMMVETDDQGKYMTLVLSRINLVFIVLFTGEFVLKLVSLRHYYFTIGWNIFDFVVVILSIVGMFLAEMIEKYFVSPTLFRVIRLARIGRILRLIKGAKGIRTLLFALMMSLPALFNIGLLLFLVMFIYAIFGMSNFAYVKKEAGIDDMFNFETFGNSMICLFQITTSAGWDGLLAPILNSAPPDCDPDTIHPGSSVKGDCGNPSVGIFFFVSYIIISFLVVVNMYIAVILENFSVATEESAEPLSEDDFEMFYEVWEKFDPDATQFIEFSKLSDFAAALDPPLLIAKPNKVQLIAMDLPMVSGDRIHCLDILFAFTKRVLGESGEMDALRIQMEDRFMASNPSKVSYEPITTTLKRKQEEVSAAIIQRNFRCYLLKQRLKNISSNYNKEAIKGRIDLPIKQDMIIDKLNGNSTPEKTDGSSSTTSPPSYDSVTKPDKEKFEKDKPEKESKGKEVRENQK
For a further test, the target named is hNav1.5 (Homo sapiens, UniProt Q14524). To be noted: IonWorks Quattro, read-out: IWQ Use Nav1.5.
For the next test, the target named is hNav1.7 (Homo sapiens, UniProt Q15858). Format: cell-based. As to conditions: IonWorks Quattro, read-out: IWQ Use Nav1.7.
Chain of hNav1.7 (Q15858 whole entry, looked up): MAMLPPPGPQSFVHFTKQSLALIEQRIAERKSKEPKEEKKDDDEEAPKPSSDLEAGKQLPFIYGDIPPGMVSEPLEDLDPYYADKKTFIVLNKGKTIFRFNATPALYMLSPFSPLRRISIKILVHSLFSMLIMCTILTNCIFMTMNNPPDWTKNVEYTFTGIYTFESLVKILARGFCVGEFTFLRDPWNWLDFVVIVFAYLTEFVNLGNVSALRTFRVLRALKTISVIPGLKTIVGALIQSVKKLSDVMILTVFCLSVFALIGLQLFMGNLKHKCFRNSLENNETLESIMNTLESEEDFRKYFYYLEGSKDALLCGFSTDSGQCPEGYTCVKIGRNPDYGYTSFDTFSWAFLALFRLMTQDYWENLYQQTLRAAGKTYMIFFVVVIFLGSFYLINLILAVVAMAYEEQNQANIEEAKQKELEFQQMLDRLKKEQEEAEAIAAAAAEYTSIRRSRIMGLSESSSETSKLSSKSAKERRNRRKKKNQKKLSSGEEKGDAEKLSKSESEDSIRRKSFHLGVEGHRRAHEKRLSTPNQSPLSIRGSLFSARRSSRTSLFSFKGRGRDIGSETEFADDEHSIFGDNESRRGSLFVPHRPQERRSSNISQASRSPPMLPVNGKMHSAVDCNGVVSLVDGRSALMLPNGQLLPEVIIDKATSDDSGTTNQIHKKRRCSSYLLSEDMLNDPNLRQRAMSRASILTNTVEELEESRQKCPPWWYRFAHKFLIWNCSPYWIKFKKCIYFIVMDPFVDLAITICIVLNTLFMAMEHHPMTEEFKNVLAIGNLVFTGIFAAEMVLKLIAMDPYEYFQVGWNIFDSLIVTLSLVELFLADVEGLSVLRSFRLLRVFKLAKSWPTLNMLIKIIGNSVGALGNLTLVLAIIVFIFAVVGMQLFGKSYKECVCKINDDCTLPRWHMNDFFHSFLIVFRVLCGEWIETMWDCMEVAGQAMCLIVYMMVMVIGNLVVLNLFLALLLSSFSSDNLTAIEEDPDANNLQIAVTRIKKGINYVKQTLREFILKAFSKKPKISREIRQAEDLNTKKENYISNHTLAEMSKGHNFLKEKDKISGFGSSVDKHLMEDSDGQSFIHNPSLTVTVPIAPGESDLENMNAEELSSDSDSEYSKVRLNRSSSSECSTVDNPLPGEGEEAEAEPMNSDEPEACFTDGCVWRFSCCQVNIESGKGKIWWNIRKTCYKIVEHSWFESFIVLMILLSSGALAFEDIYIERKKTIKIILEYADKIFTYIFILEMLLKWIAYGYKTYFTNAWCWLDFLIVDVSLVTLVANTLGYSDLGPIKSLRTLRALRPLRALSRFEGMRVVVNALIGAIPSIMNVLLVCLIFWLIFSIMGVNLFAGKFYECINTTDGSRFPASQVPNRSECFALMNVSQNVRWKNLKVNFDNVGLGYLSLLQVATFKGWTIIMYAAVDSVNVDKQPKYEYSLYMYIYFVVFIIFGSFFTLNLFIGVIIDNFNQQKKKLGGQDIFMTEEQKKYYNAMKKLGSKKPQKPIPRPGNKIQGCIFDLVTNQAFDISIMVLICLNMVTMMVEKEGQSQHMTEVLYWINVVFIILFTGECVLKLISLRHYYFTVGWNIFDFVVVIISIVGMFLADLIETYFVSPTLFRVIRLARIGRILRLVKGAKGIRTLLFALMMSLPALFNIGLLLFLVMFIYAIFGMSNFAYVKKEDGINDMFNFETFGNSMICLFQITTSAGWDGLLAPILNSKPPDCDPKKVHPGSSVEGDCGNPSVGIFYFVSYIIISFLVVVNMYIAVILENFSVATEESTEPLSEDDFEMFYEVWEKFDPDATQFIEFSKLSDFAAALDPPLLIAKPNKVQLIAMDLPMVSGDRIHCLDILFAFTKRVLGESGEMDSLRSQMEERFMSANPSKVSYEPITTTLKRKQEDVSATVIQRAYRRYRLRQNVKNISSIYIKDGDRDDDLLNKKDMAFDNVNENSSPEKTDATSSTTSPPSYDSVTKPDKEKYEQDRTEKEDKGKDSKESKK
Setting [1] is: clamped to −110 mV, depolarized to −10 mV, 5 min after compound, n=2.

On to `CC[C@H](C)[C@@H]1NC(=O)[C@@H]2CSSC[C@@H]3NC(=O)[C@H](C(C)C)NC(=O)[C@H](CC(C)C)NC(=O)[C@H](CC(N)=O)NC(=O)[C@@H]4CCCN4C(=O)[C@H](CCCNC(=N)N)NC(=O)[C@H](CSSC[C@H](NC(=O)[C@@H](N)CC(=O)O)C(=O)N[C@@H](CC(C)C)C(=O)NCC(=O)N[C@@H](C4CCCCC4)C(=O)N[C@@H](Cc4ccccc4)C(=O)N[C@@H](CCCNC(=N)N)C(=O)N[C@@H](CCCCN)C(=O)N2)NC(=O)[C@H](CSSC[C@@H](C(=O)N[C@@H](CCCCN)C(=O)N[C@@H](Cc2ccc(O)cc2)C(=O)N[C@H](C(=O)N[C@@H](Cc2ccccc2)C(N)=O)C(C)C)NC(=O)[C@H](Cc2c[nH]c4ccccc24)NC(=O)[C@H](CCCCN)NC(=O)[C@H](Cc2c[nH]cn2)NC(=O)[C@H]([C@@H](C)O)NC(=O)[C@H](CCCNC(=N)N)NC(=O)[C@H](CO)NC3=O)NC(=O)[C@H](CCCCN)NC(=O)[C@H](CC(=O)O)NC(=O)[C@H](CC(N)=O)NC(=O)[C@H](CC(=O)O)NC(=O)[C@@H]2CCCN2C1=O` [compound 616] (H-DCLG[Chg]FRKCIPDNDKCCRPNLVCSRTHKWCKYVF-NH2; disulfide 2-17, 9-23, 16-30), for which the IC50 at hNav1.3 (use-dependent protocol, hNav1.3) was determined as 75 nM; on hNav1.5 (use-dependent protocol, hNav1.5) it was 6900 nM; on hNav1.7 (use-dependent protocol, hNav1.7) it was 23 nM.

Consider `CC[C@H](C)[C@@H]1NC(=O)[C@@H]2CSSC[C@@H]3NC(=O)[C@H](C(C)C)NC(=O)[C@H](CC(C)C)NC(=O)[C@H](CC(N)=O)NC(=O)[C@@H]4CCCN4C(=O)[C@H](CCCNC(=N)N)NC(=O)[C@H](CSSC[C@H](NC(=O)[C@@H](N)CC(=O)O)C(=O)N[C@@H](CC(C)C)C(=O)NCC(=O)N[C@@H](Cc4ccccc4)C(=O)N[C@@H](CCSC)C(=O)N[C@@H](CCCNC(=N)N)C(=O)N[C@@H](CCCCN)C(=O)N2)NC(=O)[C@H](CSSC[C@@H](C(=O)N[C@@H](CCCCN)C(=O)N[C@@H](Cc2ccc(O)cc2)C(=O)N[C@H](C(=O)N[C@@H](Cc2ccccc2)C(N)=O)C(C)C)NC(=O)[C@H](Cc2c[nH]c4ccccc24)NC(=O)[C@H](CCCCN)NC(=O)[C@H](Cc2c[nH]cn2)NC(=O)[C@H](CCSC)NC(=O)[C@H](CCCNC(=N)N)NC(=O)[C@H](CO)NC3=O)NC(=O)[C@H](CCCCN)NC(=O)[C@H](CC(=O)O)NC(=O)[C@H](CC(N)=O)NC(=O)[C@H](CC(=O)O)NC(=O)[C@@H]2CCCN2C1=O` [compound 346] (H-DCLGFMRKCIPDNDKCCRPNLVCSRMHKWCKYVF-NH2; disulfide 2-17, 9-23, 16-30), for which the IC50 on hNav1.3 (Table 22, use, […]) was determined as 20 nM; at hNav1.5 (Table 22, use, […]) it was 4240 nM; on hNav1.7 (Table 22, use, […]), 40 nM.

Take `CC[C@H](C)[C@@H]1NC(=O)[C@@H]2CSSC[C@@H]3NC(=O)[C@H](C(C)C)NC(=O)[C@H](CC(C)C)NC(=O)[C@H](CC(N)=O)NC(=O)[C@@H]4CCCN4C(=O)[C@H](CCCNC(=N)N)NC(=O)[C@H](CSSC[C@H](NC(=O)[C@@H](N)CC(=O)O)C(=O)N[C@@H](CC(C)C)C(=O)NCC(=O)N[C@@H](Cc4ccccc4)C(=O)N[C@@H](c4ccccc4)C(=O)N[C@@H](CCCNC(=N)N)C(=O)N[C@@H](CCCCN)C(=O)N2)NC(=O)[C@H](CSSC[C@@H](C(=O)N[C@@H](CCCCN)C(=O)N[C@@H](Cc2ccc(O)cc2)C(=O)N[C@H](C(=O)N[C@@H](Cc2ccccc2)C(N)=O)C(C)C)NC(=O)[C@H](Cc2c[nH]c4ccccc24)NC(=O)[C@H](CCCCN)NC(=O)[C@H](Cc2c[nH]cn2)NC(=O)[C@H]([C@@H](C)O)NC(=O)[C@H](CCCNC(=N)N)NC(=O)[C@H](CO)NC3=O)NC(=O)[C@H](CCCCN)NC(=O)[C@H](CC(=O)O)NC(=O)[C@H](CC(N)=O)NC(=O)[C@H](CC(=O)O)NC(=O)[C@@H]2CCCN2C1=O` [SEQ ID NO: 288]: the IC50 at hNav1.3 (setting [1]) was 90 nM; on hNav1.5 (setting [1]), over 5000 nM; at hNav1.7 (setting [1]) it was 150 nM.

`CC[C@H](C)[C@@H]1NC(=O)[C@@H]2CSSC[C@@H]3NC(=O)[C@H](C(C)C)NC(=O)[C@H](CC(C)C)NC(=O)[C@H](CC(N)=O)NC(=O)[C@@H]4CCCN4C(=O)[C@H](CCCNC(=N)N)NC(=O)[C@H](CSSC[C@H](NC(=O)[C@@H](N)Cc4ccc(O)cc4)C(=O)N[C@@H](CC(C)C)C(=O)NCC(=O)N[C@@H](Cc4ccccc4)C(=O)N[C@@H](CCSC)C(=O)N[C@@H](CCCNC(=N)N)C(=O)N[C@@H](CCCCN)C(=O)N2)NC(=O)[C@H](CSSC[C@@H](C(=O)N[C@@H](CCCCN)C(=O)N[C@@H](Cc2ccc(O)cc2)C(=O)N[C@H](C(=O)N[C@@H](Cc2ccccc2)C(N)=O)C(C)C)NC(=O)[C@H](Cc2c[nH]c4ccccc24)NC(=O)[C@H](CCCCN)NC(=O)[C@H](Cc2c[nH]cn2)NC(=O)[C@H]([C@@H](C)O)NC(=O)[C@H](CCCNC(=N)N)NC(=O)[C@H](CO)NC3=O)NC(=O)[C@H](CCCCN)NC(=O)[C@H](CC(=O)O)NC(=O)[C@H](CC(N)=O)NC(=O)[C@H](CC(=O)O)NC(=O)[C@@H]2CCCN2C1=O` [SEQ ID NO: 97] (H-YCLGFMRKCIPDNDKCCRPNLVCSRTHKWCKYVF-NH2; disulfide 2-17, 9-23, 16-30): the IC50 came out at 130 nM on hNav1.3 (setting [1]), 10600 nM at hNav1.5 (setting [1]) and 160 nM on hNav1.7 (setting [1]).

`CC[C@H](C)[C@@H]1NC(=O)[C@@H]2CSSC[C@@H]3NC(=O)[C@H](C(C)C)NC(=O)[C@H](CC(C)C)NC(=O)[C@H](CC(N)=O)NC(=O)[C@@H]4CCCN4C(=O)[C@H](CCCNC(=N)N)NC(=O)[C@H](CSSC[C@H](NC(=O)[C@@H](N)CC(=O)O)C(=O)N[C@@H](CC(C)C)C(=O)NCC(=O)N[C@@H](Cc4ccccc4)C(=O)N[C@@H](CC[Se]C)C(=O)N[C@@H](CCCNC(=N)N)C(=O)N[C@@H](CCCCN)C(=O)N2)NC(=O)[C@H](CSSC[C@@H](C(=O)N[C@@H](CCCCN)C(=O)N[C@@H](Cc2ccc(O)cc2)C(=O)N[C@H](C(=O)N[C@@H](Cc2ccccc2)C(N)=O)C(C)C)NC(=O)[C@H](Cc2c[nH]c4ccccc24)NC(=O)[C@H](CCCCN)NC(=O)[C@H](Cc2c[nH]cn2)NC(=O)[C@H]([C@@H](C)O)NC(=O)[C@H](CCCNC(=N)N)NC(=O)[C@H](CO)NC3=O)NC(=O)[C@H](CCCCN)NC(=O)[C@H](CC(=O)O)NC(=O)[C@H](CC(N)=O)NC(=O)[C@H](CC(=O)O)NC(=O)[C@@H]2CCCN2C1=O` [SEQ ID NO: 3]: the IC50 was found to be 100 nM at hNav1.3 (setting [1]), 13900 nM at hNav1.5 (setting [1]) and 100 nM at hNav1.7 (setting [1]).

With `CC[C@H](C)[C@@H]1NC(=O)[C@@H]2CSSC[C@@H]3NC(=O)[C@H](C(C)C)NC(=O)[C@H](CC(C)C)NC(=O)[C@H](CC(N)=O)NC(=O)[C@@H]4CCCN4C(=O)[C@H](CCCNC(=N)N)NC(=O)[C@H](CSSC[C@H](NC(=O)[C@@H](N)CC(=O)O)C(=O)N[C@@H](CC(C)C)C(=O)NCC(=O)N[C@@H](Cc4ccccc4)C(=O)N[C@@H](CCSC)C(=O)N[C@@H](CCCNC(=N)N)C(=O)N[C@@H](CCCCN)C(=O)N2)NC(=O)[C@H](CSSC[C@@H](C(=O)N[C@@H](CCCCN)C(=O)N[C@@H](Cc2ccc(O)cc2)C(=O)N[C@H](C(=O)N[C@@H](Cc2ccccc2)C(N)=O)C(C)C)NC(=O)[C@H](Cc2c[nH]c4ccccc24)NC(=O)[C@H](CCCCN)NC(=O)[C@H](Cc2cnc[nH]2)NC(=O)[C@H]([C@@H](C)O)NC(=O)[C@H](CCCNC(=N)N)NC(=O)[C@H](CO)NC3=O)NC(=O)[C@H](CCCCN)NC(=O)[C@H](CC(=O)O)NC(=O)[C@H](Cc2c[nH]c3ccccc23)NC(=O)[C@H](CC(=O)O)NC(=O)[C@@H]2CCCN2C1=O` [compound 173] (H-DCLGFMRKCIPDWDKCCRPNLVCSRTHKWCKYVF-NH2; disulfide 2-17, 9-23, 16-30), the IC50 was found to be 50 nM on hNav1.3 (Use), 17300 nM at hNav1.5 (Use) and 90 nM at hNav1.7 (Use).
